Type in all cases: cell-based
Experiment [1] has as its system Staphylococcus aureus ATCC 25923. Nature of the experiment: Broth microdilution MIC. To be noted: for MIC: Staphylococcus aureus, ATCC25923, read-out: Minimum Inhibitory Concentrations (MIC). For orientation: Dilution methods test growth across graded concentrations, often in twofold steps.
The subject of experiment [2] is Staphylococcus aureus ATCC 33591 (methicillin-resistant). As to the kind of experiment: Broth microdilution MIC. The note with it: Staphylococcus aureus, ATCC33591, read-out: Minimum Inhibitory Concentrations (MIC).
The subject of experiment [3] is Staphylococcus aureus Clinical/MRSA. As to the kind of experiment: Broth microdilution MIC. To be noted: Staphylococcus aureus, MRSA, read-out: Minimum Inhibitory Concentrations (MIC).
Experiment [4] relates to Listeria monocytogenes ATCC 7644. As to the kind of experiment: Broth microdilution MIC. To be noted: for MIC: Listeria monocytogenes, ATCC7644, read-out: Minimum Inhibitory Concentrations (MIC), Listeria monocytogenes ATCC 7644.
Experiment [5] relates to Escherichia coli ATCC 25922. Nature of the experiment: Broth microdilution MIC. To be noted: Escherichia coli, ATCC25922, read-out: Minimum Inhibitory Concentrations (MIC).
The test system of experiment [6] is Salmonella enterica (food isolate). As to the kind of experiment: Broth microdilution MIC. The note with it: read-out: Minimum Inhibitory Concentrations (MIC).
The test system of experiment [7] is Pseudomonas aeruginosa ATCC 27853. Nature of the experiment: Broth microdilution MIC. The note with it: for MIC: Pseudomonas aeruginosa, ATCC27853, read-out: Minimum Inhibitory Concentrations (MIC).
Experiment [8] concerns Staphylococcus aureus ATCC 25923. As to the kind of experiment: Biofilm inhibition assay (crystal violet). As to the method: (§1) The ability of the candidate compounds to inhibit biofilm formation was evaluated by determining the minimum biofilm inhibitory concentration (MBIC) against the biofilm-forming strains Staphylococcus aureus ATCC 25923 and Listeria monocytogenes ATCC 7644. Overnight bacterial cultures were diluted in fresh, pre-warmed Mueller–Hinton broth (MHB) and incubated at 37 °C with constant shaking at 220 rpm. Once the cultures reached the exponential growth phase (OD600 = 0.3–0.5), they were standardized to a final concentration of 4 × 10^6 CFU/mL.
(§2) Plates were incubated at 37 °C for 24 to 48 h, depending on the bacterial strain. After incubation, the planktonic cells were carefully aspirated to preserve the integrity of the biofilm layer. Wells were gently rinsed with sterile ultrapure Milli-Q water and air-dried at 60 °C for 1 h to fix the biofilms. Biofilm formation was quantified using a crystal violet (CV) staining method. Wells were stained with 100 µL of 0.1% CV solution and incubated at room temperature for 1 h. Excess dye was removed by rinsing with sterile ultrapure Milli-Q water, followed by air-drying. Bound CV was solubilized with 100 µL of 70% ethanol and incubated for 30 min. The solubilized dye was transferred to a fresh plate, and absorbance was measured at 595 nm using a microplate reader (Bio-Tek EL808, Winooski, VT, USA). Absorbance values were directly proportional to biofilm biomass. Untreated bacterial cultures served as positive controls for biofilm formation, while sterile MHB served as the negative control.

Experiment [9] has as its system Listeria monocytogenes ATCC 7644. Nature of the experiment: Biofilm inhibition assay (crystal violet). The note with it: Listeria monocytogenes, ATCC7644, read-out: biofilm inhibition. The method, then:
as §1
as §2, with “Aliquots (50 µL) of the standardized bacterial suspension were inoculated into 96-well microtiter plates containing the test compounds at final concentrations of 100, 50, 25, and 12.5 µg/mL. Plates” for “Plates”

Experiment [10] deals with Staphylococcus aureus ATCC 25923. As to the kind of experiment: Time-kill kinetics assay. The method, then:
To assess the temporal dynamics of bacterial viability upon exposure to the test compounds, a time-kill kinetics assay was performed using the Gram-positive reference strain Staphylococcus aureus ATCC 25923. An overnight culture of the strain was subcultured into fresh, pre-warmed Mueller–Hinton broth (MHB) and incubated under aerobic conditions at 37 °C with agitation (220 rpm) until reaching the early exponential growth phase. The bacterial suspension was then standardized to an initial concentration of approximately 5 × 10^5 CFU/mL. […] Wells containing untreated bacterial cultures served as growth controls. Immediately after mixing, a 10 µL sample from each well was withdrawn, diluted in 990 µL of MHB, and serially diluted tenfold up to 10^−6. From each dilution, 20 µL was plated on MHB agar using a sterile loop to determine the initial bacterial count (time zero). The treated plates were incubated at 37 °C, and additional samples were collected at predetermined time points (2, 4, 6, 8, 12, and 24 h) following the same dilution and plating protocol. After 24 h of incubation at 37 °C, colonies were counted, and viable bacterial counts were expressed as log10 CFU/mL for each time point. Bactericidal activity was evaluated by plotting the log10 CFU/mL over time, providing a dynamic profile of the compound’s killing kinetics.

Experiment [11] relates to Listeria monocytogenes ATCC 7644. Nature of the experiment: Time-resolved growth kinetics. The note with it: MIC and ½ MIC. The method, then: The antimicrobial activity of the candidate compounds against Staphylococcus aureus ATCC 25923 and Listeria monocytogenes ATCC 7644 was further evaluated using a time-resolved growth kinetics assay in 96-well microtiter plates. Overnight bacterial cultures were diluted in fresh, pre-warmed Mueller–Hinton broth (MHB) and incubated at 37 °C with orbital shaking at 220 rpm. Upon reaching the exponential growth phase (OD600 = 0.3–0.5), cultures were standardized to a final concentration of 5 × 10^4 CFU/mL. Aliquots (50 µL) of the standardized inoculum were dispensed into wells containing either no antimicrobial agent (negative control) or the test compounds at concentrations corresponding to ½ MIC and MIC. Bacterial growth was continuously monitored over a 24 h period by measuring absorbance at 595 nm every 10 min using a Bio-Tek EL808 microplate reader (Winooski, VT, USA). Growth kinetics were assessed by comparing the optical density profiles of treated samples against the untreated control. Each experiment was performed independently twice, with all conditions tested in triplicate. Data are presented as the mean values of these replicates.

Where [12] appears, read: S. aureus ATCC 25923, 6.25 µg/mL.
Setting [13] is: S. aureus ATCC 25923, 12.5 µg/mL.
Where [14] appears, read: S. aureus ATCC 25923, 100 µg/mL.

In general, inhibition refers to the drop in the measured response relative to a control, in per cent. Regarding `CCCCCCCCCCCCCCCCNC1C[N+]2(CCC[N+]34CCC(CC3)C(NCCCCCCCCCCCCCCCC)C4)CCC1CC2` (racemic) [2(QC16)3, (±)-1,1′-(Propane-1,3-diyl) bis(3-(hexadecylamino)quinuclidinium) dibromide], the MIC is 38 µM in [1]; 19 µM in experiment [2]; above 75 µM in experiment [3]; 9 µM in experiment [4]; above 75 µM in experiment [5]; above 75 µM in [6]. In addition, the MIC in [7] was above 75 µM. Besides, the biofilm inhibition in experiment [8] (setting [12]) is on record as above 2%; in [8] (setting [13]), 11%; in experiment [8] (S. aureus ATCC 25923, 25 µg/mL) it was above 80%; in [8] (S. aureus ATCC 25923, 50 µg/mL), “exceeding 90%”; in experiment [8] (setting [14]), “exceeding 90%”. Besides, the inhibition at 6.25 µg/mL in experiment [9] was found to be 91%. Further, the inhibition at 12.5 µg/mL in [9] worked out at 93%. In addition, the inhibition at 25 µg/mL in experiment [9] was determined as 94%. Further, the inhibition at 50 µg/mL in [9] is 94%. Further, in experiment [9], the inhibition at 100 µg/mL worked out at 97%. In addition, in experiment [10] (S. aureus ATCC 25923), the “time to rapid bactericidal activity” value is recorded as at most 3 h. Besides, the “time to complete killing” value in experiment [10] (S. aureus ATCC 25923, 2 × MIC) was determined as 2 h. For the same molecule, the “effect on bacterial growth” value in [11] was “pronounced inhibitory effect”.
On to `CCCCCCCCCCCCCCCCNC1C[N+]2(CCCCCC[N+]34CCC(CC3)C(NCCCCCCCCCCCCCCCC)C4)CCC1CC2` (racemic) [2(QC16)6, (±)-1,1′-(Hexane-1,6-diyl) bis(3-(hexadecylamino)quinuclidinium) dibromide], for which the “Minimum Inhibitory Concentrations (MIC)” value in experiment [1] (Staphylococcus aureus ATCC 25923) is 9 µM; in experiment [4] (Listeria monocytogenes ATCC 7644) it was 19 µM; in experiment [7] (Pseudomonas aeruginosa ATCC 27853) it was “largely inactive”. Also, the MIC worked out at 9 µM in experiment [1]; 5 µM in [2]; 38 µM in experiment [3]; 38 µM in experiment [4]; 19 µM in experiment [5]; 75 µM in experiment [6]. Also, the MIC in experiment [7] was above 75 µM. Also, the biofilm inhibition is 6% in experiment [8] (setting [12]); above 30% in experiment [8] (setting [13]); above 80% in [8] (S. aureus ATCC 25923, 25 µg/mL); above 90% in experiment [8] (S. aureus ATCC 25923, 50 µg/mL); 95% in experiment [8] (setting [14]). Also, the inhibition at 6.25 µg/mL in experiment [9] worked out at 40%. In addition, in experiment [9], the inhibition at 12.5 µg/mL amounted to 69%. For the same molecule, in [9], the inhibition at 25 µg/mL worked out at 81%. In addition, the inhibition at 50 µg/mL in [9] was 88%. Further, in experiment [9], the inhibition at 100 µg/mL came out at 89%. Further, the “time to complete eradication / elimination of viable cells (CFU)” value in experiment [10] (S. aureus ATCC 25923) is at most 2 h. Besides, the “effect on bacterial growth” value in [11] is “pronounced inhibitory effect”.

The values are drawn from publication PMC12473123, “Structure–Function Insights into Quinuclidine-3-One BisQACs: Synthesis, Modulation of Bacterial Resistance, Structure–Activity Relationship, and Biological Profiling” (Pharmaceuticals, 2025).
